# Results reported in patent US20240075064A1, “COMPOSITIONS AND METHODS FOR EXPANSION OF T CELLS AND TUMOR INFILTRATING LYMPHOCYTES” (OBSIDIAN THERAPEUTICS, INC., priority 2021, published 2024).
# System: IL15 signaling pathway
# Assay: Phospho-flow cytometry assay of IL15 expression and signaling (pSTAT5, pS6)
# Type: cell-based, human
# Settings: regulated mbIL15 TILs, ACZ 0.1-100, 18 hours
# Description: Pre-REP TILs were prepared similarly to the methods of Example 1-3 and 9, and unengineered and mbIL15 TIL generated accordingly as described in Examples 1-3 and 9. Engagement of the IL15 signaling pathway results in phosphorylation of signal transducers downstream, including the transcription factor protein STATS and ribosomal protein S6. […] Next, the regulated mbIL15 TILs were regulated for 18 hours in the presence of a range of concentrations of ACZ including 0.1, 1, 2.5, 5, 10, 25, 100 as well as vehicle control. The regulated mbIL15 TILs were then collected for staining and FACS analysis.
# Briefly, cells were stained using antibodies for CD3, CD4, CD8, IL15 and a Live/Dead marker. Then cells were fixed in 2% formaldehyde (BD Cytofix) and permeabilized using a methanol-based buffer (BD Phospho Perm III Buffer) before staining with antibodies specific for phosphorylated STATS (Biolegend) and S6 (Cell Signaling Technology). Cells were acquired on the BD Symphony and analyzed using FlowJo software.
# In order to compare different strategies for IL15 expression, TILs were utilized that constitutively express mbIL15 and regulated mbIL15 TILs. Cryopreserved unengineered TILs, constitutive mbIL15 TILs, and regulated mbIL15 TILs, from three human donors were thawed and then rested in ACZ-free media for 24 hours. […] Cells were acquired on the BD Fortessa and analyzed using FlowJo software.
compound,measurement,value
"CC(=O)Nc1nnc(S(N)(=O)=O)s1 [ACZ, acetazolamide]",staining intensity of pSTAT5 and pS6,increased with higher concentrations of ACZ
